# Source: paper PMC9527238, “Glutamate and GABAA receptor crosstalk mediates homeostatic regulation of neuronal excitation in the mammalian brain” (Signal Transduction and Targeted Therapy, 2022)
# Tests used:
# [1] = molecular target: T1, α1β2E181Gγ2 GABAAR with γ2 R197E mutation (Rattus norvegicus, UniProt P18508+P62813+P63138, E206G/R235E); experiment: Patch clamp, HEK293, mutant GABAAR; type: cell-based
# T1 construct: expressed in transfected cells; host or cells: HEK293
# Experimental: (§1) HEK293 cells were cultured in DMEM (Invitrogen) supplemented with 10% fetal bovine serum. Cells were grown to 40–60% confluence and transiently transfected using Lipofectamine 2000 (Invitrogen) with 1:0.5–1 plasmid/lipid ratio. Cells were transfected with a pBK-CMV expression vector containing a rat recombinant GABAAR α, β or γ subunits. Co-transections were done with a plasmid ratio of 1:1 αβ and 2:2:1 for αβγ subunit combinations, respectively. pcDNA3.1-GFP was also co-transfected along with GABAAR subunits as a transfected marker in order to facilitate the visualization of the transfected cells during electrophysiological experiments. Cells were re-plated on glass coverslips after 15–20 h transfection and were cultured for an additional 15–24 h before whole-cell patch-clamp recordings.
# (§2) The site-directed mutagenesis of α, β or γ subunits were performed by using the QuikChange method (Stratagene). […] Wild-type or mutant subunits were transfected in HEK293 cells and subjected to electrophysiology examinations.
# (§3) Whole-cell patch-clamp recordings were performed under voltage-clamp mode using an Axopatch 200B or 1D patch-clamp amplifier (Molecular Devices) on HEK293 cells and cultured neurons. Whole-cell currents were recorded at a holding potential of −60 mV, and signals were filtered at 2 kHz, digitized at 10 kHz (Digidata 1322 A). Recording pipettes (3–5 MΩ) were filled with the intracellular solution that contained (mM): CsCl 140, HEPES 10, Mg-ATP 4, QX-314 5, pH 7.20; osmolarity, 290–295 mOsm. BAPTA (10 mM) was added in the intracellular solution. The coverslips were continuously superfused with the extracellular solution containing (mM): NaCl 140, KCl 5.4, HEPES 10, MgCl2 1.0, CaCl2 1.3, glucose 20, pH 7.4; osmolarity, 305–315 mOsm.
# [2] = molecular target: T2, α1K155Dβ2γ2E168K GABAAR (Rattus norvegicus, UniProt P18508+P62813+P63138, E206K/K182D); experiment: Patch clamp, HEK293, mutant GABAAR; type: cell-based
# T2 construct: expressed in transfected cells; host or cells: HEK293
# Experimental: as §1, §2, §3
# T2 sequence (P62813 28-455 K182D): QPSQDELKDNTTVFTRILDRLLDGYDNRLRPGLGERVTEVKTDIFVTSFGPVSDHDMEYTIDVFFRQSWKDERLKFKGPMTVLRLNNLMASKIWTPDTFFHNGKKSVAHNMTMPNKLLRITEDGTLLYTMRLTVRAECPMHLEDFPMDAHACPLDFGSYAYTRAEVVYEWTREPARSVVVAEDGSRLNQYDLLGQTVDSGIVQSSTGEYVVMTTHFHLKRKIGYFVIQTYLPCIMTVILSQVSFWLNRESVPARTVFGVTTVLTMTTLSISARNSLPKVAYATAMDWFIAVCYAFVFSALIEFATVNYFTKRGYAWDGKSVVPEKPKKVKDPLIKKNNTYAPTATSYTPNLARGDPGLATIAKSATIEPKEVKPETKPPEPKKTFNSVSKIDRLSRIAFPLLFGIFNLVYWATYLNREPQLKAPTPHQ
# T2 sequence (P63138 26-474, stated change not applied): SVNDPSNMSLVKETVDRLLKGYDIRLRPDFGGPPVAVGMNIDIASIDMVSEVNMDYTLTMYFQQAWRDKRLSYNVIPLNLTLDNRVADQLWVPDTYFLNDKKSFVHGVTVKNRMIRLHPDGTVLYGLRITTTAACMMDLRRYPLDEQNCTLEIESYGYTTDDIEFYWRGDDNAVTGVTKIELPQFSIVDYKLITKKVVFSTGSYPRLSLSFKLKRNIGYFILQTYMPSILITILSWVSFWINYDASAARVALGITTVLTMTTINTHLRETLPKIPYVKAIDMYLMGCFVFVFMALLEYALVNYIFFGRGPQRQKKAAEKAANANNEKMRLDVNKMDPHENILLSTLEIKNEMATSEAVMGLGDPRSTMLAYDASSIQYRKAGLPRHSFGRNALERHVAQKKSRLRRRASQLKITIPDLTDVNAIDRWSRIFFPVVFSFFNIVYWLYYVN
# T2 sequence (P18508 39-466 E206K): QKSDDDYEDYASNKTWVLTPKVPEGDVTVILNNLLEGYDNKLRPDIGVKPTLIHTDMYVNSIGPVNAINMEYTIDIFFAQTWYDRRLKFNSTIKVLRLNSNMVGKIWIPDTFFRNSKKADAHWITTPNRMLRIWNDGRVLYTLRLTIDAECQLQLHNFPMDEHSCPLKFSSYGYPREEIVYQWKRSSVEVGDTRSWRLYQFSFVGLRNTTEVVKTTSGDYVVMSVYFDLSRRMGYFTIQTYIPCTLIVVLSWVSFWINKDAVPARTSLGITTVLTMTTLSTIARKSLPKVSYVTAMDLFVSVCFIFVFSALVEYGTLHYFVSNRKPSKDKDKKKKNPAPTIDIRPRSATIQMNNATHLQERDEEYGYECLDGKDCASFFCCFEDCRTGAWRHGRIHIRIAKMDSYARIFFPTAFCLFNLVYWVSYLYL
# T1 sequence (P62813 28-455): as the sequence (P62813 28-455 K182D) above, with D155K counted along it
# T1 sequence (P63138 26-474 E206G): as the sequence (P63138 26-474, stated change not applied) above, with E181G counted along it
# T1 sequence (P18508 39-466 R235E): as the sequence (P18508 39-466 E206K) above, with K168E, R197E counted along it
smiles,measurement,setting,value
"N[C@@H](CCC(=O)O)C(=O)O [glutamate, Glutamate]","restored potentiation, % of wild-type α1β2γ2",[1]; Glu 100 μM,76.6 ± 10.4%
same,"restored potentiation, % of wild-type α1β2γ2",[1]; Glu 1 mM,84.5 ± 16.9%
same,"restored potentiation, % of wild-type α1β2γ2",[2]; 100 μM glutamate,71.8 ± 14.7%
same,"restored potentiation, % of wild-type α1β2γ2",[2]; 1 mM glutamate,76.4 ± 10%
